Key:
[1] = target: hOX1R (orexin-1 receptor) (Homo sapiens, UniProt O43613); test: FLIPR Ca2+ flux assay, hOX1R; format: cell-based; conditions: CHO cells expressing the receptor; agonist 70 pM Ala-6,12 human orexin-A
human orexin-2 receptor = human orexin-2 receptor (Homo sapiens (Human), UniProt O43614); test: FLIPR Ca2+ flux assay, hOX2R; format: cell-based; conditions: CHO cells expressing the receptor; agonist 70 pM Ala-6,12 human orexin-A
Method: The utility of the compounds in accordance with the present invention as orexin receptor OX1R and/or OX2R antagonists may be readily determined without undue experimentation by methodology well known in the art, including the “FLIPR Ca^2+ Flux Assay” (Okumura et al., Biochem. Biophys. Res. Comm. 280:976-981, 2001). In a typical experiment the OX1 and OX2 receptor antagonistic activity of the compounds of the present invention was determined in accordance with the following experimental method. For intracellular calcium measurements, Chinese hamster ovary (CHO) cells expressing the rat orexin-1 receptor or the human orexin-2 receptor, are grown in Iscove's modified DMEM containing 2 mM L-glutamine, […], 1% hypoxanthine-thymidine supplement, 100 U/ml penicillin, 100 μg/ml streptomycin and 10% heat-inactivated fetal calf serum (FCS). The cells are seeded at 20,000 cells/well into Becton-Dickinson black 384-well clear bottom sterile plates coated with poly-D-lysine. All reagents were from GIBCO-Invitrogen Corp. The seeded plates are incubated overnight at 37° C. and 5% CO2. Ala-6,12 human orexin-A as the agonist is prepared as a 1 mM stock solution in 1% bovine serum albumin (BSA) and diluted in assay buffer (HBSS containing 20 mM HEPES, 0.1% BSA and 2.5 mM probenecid, pH7.4) for use in the assay at a final concentration of 70 pM. Test compounds are prepared as 10 mM stock solution in DMSO, then diluted in 384-well plates, first in DMSO, then assay buffer. On the day of the assay, cells are washed 3 times with 100 μl assay buffer and then incubated for 60 min (37° C., 5% CO2) in 60 μl assay buffer containing 1 μM Fluo-4AM ester, 0.02% pluronic acid, and 1% BSA. The dye loading solution is then aspirated and cells are washed 3 times with 100 μl assay buffer. 30 μl of that same buffer is left in each well. Within the Fluorescent Imaging Plate Reader (FLIPR, Molecular Devices), test compounds are added to the plate in a volume of 25 μl, incubated for 5 min and finally 25 μl of agonist is added. Fluorescence is measured for each well at 1 second intervals for 5 minutes and the height of each fluorescence peak is compared to the height of the fluorescence peak induced by 70 pM Ala-6,12 orexin-A with buffer in place of antagonist. For each antagonist, IC50 value (the concentration of compound needed to inhibit 50% of the agonist response) is determined. Alternatively, compound potency can be assessed by a radioligand binding assay (described in Bergman et. al. Bioorg. Med. Chem. Lett. 2008, 18, 1425-1430) in which the inhibition constant (Ki) is determined in membranes prepared from CHO cells expressing either the OX1 or OX2 receptor. The intrinsic orexin receptor antagonist activity of a compound which may be used in the present invention may be determined by these assays.

human orexin-2 receptor, sequence (O43614 whole entry): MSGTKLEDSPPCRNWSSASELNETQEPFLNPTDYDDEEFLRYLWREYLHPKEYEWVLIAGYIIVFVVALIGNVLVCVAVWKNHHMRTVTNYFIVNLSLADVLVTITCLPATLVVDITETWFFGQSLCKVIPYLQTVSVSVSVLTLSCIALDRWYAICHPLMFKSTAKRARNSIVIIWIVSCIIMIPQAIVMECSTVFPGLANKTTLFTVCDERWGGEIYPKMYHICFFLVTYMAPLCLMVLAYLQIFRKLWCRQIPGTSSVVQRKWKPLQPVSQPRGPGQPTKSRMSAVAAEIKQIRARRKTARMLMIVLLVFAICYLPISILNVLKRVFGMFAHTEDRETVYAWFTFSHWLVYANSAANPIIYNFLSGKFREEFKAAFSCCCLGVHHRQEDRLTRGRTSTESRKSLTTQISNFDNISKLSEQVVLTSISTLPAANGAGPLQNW

`CCN(CCn1ncc(C(C)(C)O)n1)C(=O)c1ccccc1-n1nccn1` [Example 1, N-Ethyl-N-(2-(4-(2-hydroxypropan-2-yl)-2H-1,2,3-triazol-2-yl)ethyl)-2-(2H-1,2,3-triazol-2-yl)benzamide] was tested, and the IC50 [1] was over 10000 nM and the IC50 (human orexin-2 receptor) was 58 nM.

`CCN(CCn1ncc(C(C)(O)CC)n1)C(=O)c1ccccc1-n1nccn1` (centres unmarked) [Example 2, N-Ethyl-N-(2-(4-(2-hydroxybutan-2-yl)-2H-1,2,3-triazol-2-yl)ethyl)-2-(2H-1,2,3-triazol-2-yl)benzamide] was tested, and the IC50 [1] was over 10000 nM and the IC50 (human orexin-2 receptor) was 65 nM.

Work on `CCN(CCn1ncc(C(C)O)n1)C(=O)c1ccccc1-n1nccn1` (centres unmarked) [Example 3, N-Ethyl-N-(2-(4-(1-hydroxyethyl)-2H-1,2,3-triazol-2-yl)ethyl)-2-(2H-1,2,3-triazol-2-yl)benzamide] yielded an IC50 [1] of over 10000 nM and an IC50 (human orexin-2 receptor) of 373 nM.

Work on `CCN(CCn1ncc(C(C)(C)O)n1)C(=O)c1ccccc1C1CC1` [Example 4, 2-Cyclopropyl-N-ethyl-N-(2-(4-(2-hydroxypropan-2-yl)-2H-1,2,3-triazol-2-yl)ethyl)benzamide] yielded an IC50 [1] of over 10000 nM and an IC50 (human orexin-2 receptor) of 47 nM.

For `CCN(CCn1ncc(C(C)(C)O)n1)C(=O)c1ccccc1N1CCCC1` [Example 5, N-ethyl-N-(2-(4-(2-hydroxypropan-2-yl)-2H-1,2,3-triazol-2-yl)ethyl)-2-(pyrrolidin-1-yl)benzamide], the IC50 [1] was over 10000 nM and the IC50 (human orexin-2 receptor) was 41 nM.

`CCN(CCn1ncc(C(C)(C)O)n1)C(=O)c1ccccc1SC(F)(F)F` [Example 11, N-ethyl-N-(2-(4-(2-hydroxypropan-2-yl)-2H-1,2,3-triazol-2-yl)ethyl)-2-((trifluoromethyl)thio)benzamide] was tested, and the IC50 [1] was over 10000 nM and the IC50 (human orexin-2 receptor) was 34 nM.

With `CCN(CCn1ncc(C(C)(C)O)n1)C(=O)c1ccccc1OC(F)(F)F` [Example 12, N-ethyl-N-(2-(4-(2-hydroxypropan-2-yl)-2H-1,2,3-triazol-2-yl)ethyl)-2-(trifluoromethoxy)benzamide] the IC50 [1] was over 10000 nM and the IC50 (human orexin-2 receptor) was 247 nM.

With `CCN(CCn1ncc(C(C)(C)O)n1)C(=O)c1ccccc1OC(C)C` [Example 18, N-ethyl-N-(2-(4-(2-hydroxypropan-2-yl)-2H-1,2,3-triazol-2-yl)ethyl)-2-isopropoxybenzamide] the IC50 [1] was over 10000 nM and the IC50 (human orexin-2 receptor) was 145 nM.

`CCN(CCn1nc(C)c(C(C)(C)O)n1)C(=O)c1ccccc1-n1nccn1` [Example 20, N-Ethyl-N-(2-(4-(2-hydroxypropan-2-yl)-5-methyl-2H-1,2,3-triazol-2-yl)ethyl)-2-(2H-1,2,3-triazol-2-yl)benzamide] showed an IC50 [1] of 2860 nM and an IC50 (human orexin-2 receptor) of 12 nM.

`CCN(CCn1nc(C)c(C(C)(C)O)n1)C(=O)c1cccnc1OCC(F)(F)F` [Example 21, N-Ethyl-N-(2-(4-(2-hydroxypropan-2-yl)-5-methyl-2H-1,2,3-triazol-2-yl)ethyl)-2-(2,2,2-trifluoroethoxy)nicotinamide] gave an IC50 [1] of over 10000 nM and an IC50 (human orexin-2 receptor) of 21 nM.

Work on `CCN(CCn1nc(C)c(C(C)(C)O)n1)C(=O)c1cccnc1OC(C)C` [Example 22, N-ethyl-N-(2-(4-(2-hydroxypropan-2-yl)-5-methyl-2H-1,2,3-triazol-2-yl)ethyl)-2-isopropoxynicotinamide] yielded an IC50 [1] of over 10000 nM and an IC50 (human orexin-2 receptor) of 61 nM.

Compound `CCOc1ncccc1C(=O)N(CC)CCn1nc(C)c(C(C)(C)O)n1` [Example 23, 2-ethoxy-N-ethyl-N-(2-(4-(2-hydroxypropan-2-yl)-5-methyl-2H-1,2,3-triazol-2-yl)ethyl)nicotinamide] has an IC50 [1] of over 10000 nM and an IC50 (human orexin-2 receptor) of 58 nM.

`CCN(CCn1nc(C)c(C(C)(C)O)n1)C(=O)c1cccnc1OCC(F)F` [Example 24, 2-(2,2-difluoroethoxy)-N-ethyl-N-(2-(4-(2-hydroxypropan-2-yl)-5-methyl-2H-1,2,3-triazol-2-yl)ethyl)nicotinamide] gave an IC50 [1] of over 10000 nM and an IC50 (human orexin-2 receptor) of 44 nM.

For `CCN(CCn1nc(C)c(C(C)(C)O)n1)C(=O)c1ccccc1OC(F)F` [Example 25, 2-(difluoromethoxy)-N-ethyl-N-(2-(4-(2-hydroxypropan-2-yl)-5-methyl-2H-1,2,3-triazol-2-yl)ethyl)benzamide], the IC50 [1] was over 10000 nM and the IC50 (human orexin-2 receptor) was 35 nM.

With `CCN(CCn1nc(C)c(C(C)(C)O)n1)C(=O)c1ccccc1OC(F)(F)F` [Example 26] the IC50 [1] was over 10000 nM and the IC50 (human orexin-2 receptor) was 19 nM.

In the case of `CCOc1ccccc1C(=O)N(CC)CCn1nc(C)c(C(C)(C)O)n1` [Example 27, 2-ethoxy-N-ethyl-N-(2-(4-(2-hydroxypropan-2-yl)-5-methyl-2H-1,2,3-triazol-2-yl)ethyl)benzamide], the IC50 [1] is reported as over 10000 nM and the IC50 (human orexin-2 receptor) is reported as 27 nM.

For `CCN(CCn1nc(C)c(C(C)(C)O)n1)C(=O)c1ccccc1C1CC1` [Example 28, 2-cyclopropyl-N-ethyl-N-(2-(4-(2-hydroxypropan-2-yl)-5-methyl-2H-1,2,3-triazol-2-yl)ethyl)benzamide], the IC50 [1] was 1560 nM and the IC50 (human orexin-2 receptor) was 13 nM.

With `CCN(CCn1nc(C)c(C(C)(C)O)n1)C(=O)c1ccccc1-n1cccn1` [Example 29, N-ethyl-N-(2-(4-(2-hydroxypropan-2-yl)-5-methyl-2H-1,2,3-triazol-2-yl)ethyl)-2-(1H-pyrazol-1-yl)benzamide] the IC50 [1] was over 10000 nM and the IC50 (human orexin-2 receptor) was 28 nM.

`CCN(CCn1nc(C)c(C(C)(C)O)n1)C(=O)c1ccc(F)cc1-n1nccn1` [Example 30, N-ethyl-4-fluoro-N-(2-(4-(2-hydroxypropan-2-yl)-5-methyl-2H-1,2,3-triazol-2-yl)ethyl)-2-(2H-1,2,3-triazol-2-yl)benzamide] was tested, and the IC50 [1] was 5540 nM and the IC50 (human orexin-2 receptor) was 10 nM.

`CCN(CCn1nc(C)c(C(C)(C)O)n1)C(=O)c1cccnc1-c1ccccc1` [Example 31, N-ethyl-N-(2-(4-(2-hydroxypropan-2-yl)-5-methyl-2H-1,2,3-triazol-2-yl)ethyl)-2-phenylnicotinamide] showed an IC50 [1] of over 10000 nM and an IC50 (human orexin-2 receptor) of 33 nM.

`CCCc1ccccc1C(=O)N(CC)CCn1nc(C)c(C(C)(C)O)n1` [Example 32, N-ethyl-N-(2-(4-(2-hydroxypropan-2-yl)-5-methyl-2H-1,2,3-triazol-2-yl)ethyl)-2-propylbenzamide] gave an IC50 [1] of 2210 nM and an IC50 (human orexin-2 receptor) of 32 nM.

Compound `CCN(CCn1nc(C)c(C(C)(C)O)n1)C(=O)c1ccccc1OCC(F)(F)F` [Example 33, N-ethyl-N-(2-(4-(2-hydroxypropan-2-yl)-5-methyl-2H-1,2,3-triazol-2-yl)ethyl)-2-(2,2,2-trifluoroethoxy) benzamide] has an IC50 [1] of over 10000 nM and an IC50 (human orexin-2 receptor) of 52 nM.

In the case of `CCN(CCn1nc(C)c(C(C)(C)O)n1)C(=O)c1ccccc1CC(F)(F)F` [Example 34, N-ethyl-N-(2-(4-(2-hydroxypropan-2-yl)-5-methyl-2H-1,2,3-triazol-2-yl)ethyl)-2-(2,2,2-trifluoroethyl) benzamide], the IC50 [1] is reported as over 10000 nM and the IC50 (human orexin-2 receptor) is reported as 37 nM.

For `CCN(CCn1nc(C)c(C(C)(C)O)n1)C(=O)c1ccccc1OCC(F)F` [Example 35, 2-(2,2-difluoroethoxy)-N-ethyl-N-(2-(4-(2-hydroxypropan-2-yl)-5-methyl-2H-1,2,3-triazol-2-yl)ethyl)benzamide], the IC50 [1] was over 10000 nM and the IC50 (human orexin-2 receptor) was 35 nM.

`CCN(CCn1nc(C)c(C(C)(C)O)n1)C(=O)c1cccnc1CC(F)(F)F` [Example 36, N-ethyl-N-(2-(4-(2-hydroxypropan-2-yl)-5-methyl-2H-1,2,3-triazol-2-yl)ethyl)-2-(2,2,2-trifluoroethyl) nicotinamide] gave an IC50 [1] of over 10000 nM and an IC50 (human orexin-2 receptor) of 270 nM.

`CCN(CCn1nc(C)c(C(C)(C)O)n1)C(=O)c1ccccc1CC(F)F` [Example 37, 2-(2,2-difluoroethyl)-N-ethyl-N-(2-(4-(2-hydroxypropan-2-yl)-5-methyl-2H-1,2,3-triazol-2-yl)ethyl)benzamide] showed an IC50 [1] of over 10000 nM and an IC50 (human orexin-2 receptor) of 10 nM.

`CCN(CCn1nc(C)c(C(C)(C)O)n1)C(=O)c1ccccc1C1CC1(F)F` (centres unmarked) [Example 38, 2-(2,2-difluorocyclopropyl)-N-ethyl-N-(2-(4-(2-hydroxypropan-2-yl)-5-methyl-2H-1,2,3-triazol-2-yl)ethyl)benzamide] gave an IC50 [1] of 1480 nM and an IC50 (human orexin-2 receptor) of 10 nM.

Work on `CCN(CCn1nc(C)c(C(C)(C)O)n1)C(=O)c1ccc(OC)nc1C1CC1` [Example 39, 2-cyclopropyl-N-ethyl-N-(2-(4-(2-hydroxypropan-2-yl)-5-methyl-2H-1,2,3-triazol-2-yl)ethyl)-6-methoxynicotinamide] yielded an IC50 [1] of 2840 nM and an IC50 (human orexin-2 receptor) of 14 nM.
